Laboratory results reported in patent publication US20220040072A1, “Reduction of Pathogenic Bacteria Using Arginine” (Colgate-Palmolive Company, priority 2018, published 2022).

Key:
[1] = tested on: Fusobacterium nucieatum; experiment: Dual species competitive biofilm assay (qPCR); type: cell-based, Fusobacterium nucleatum; details: 25 μmol/ml arginine, negative value = reduction of pathogen
Description: (§1) The impact of arginine in a dual-species biofilm was assessed by co-culturing one beneficial bacterial species with on pathogenic microbe in media containing 25 micromol/ml of arginine. The total beneficial-to-pathogen load in the results biofilms were determined via qPCR using DNA probes.
(§2) Using a competitive biofilm assay, the role of arginine as a selective nutrient was assessed using a dual species biofilm model (Table 2).

[2] = tested on: pathogenic and beneficial microbes; experiment: Total biofilm growth in the presence of arginine (crystal violet staining); type: cell-based; details: vs no substrate control, species other than A. actinomycetemcomitans
Excerpt: (§3) *Single species growth and biofilm formation stimulated by arginine in comparison to the reference control which was set to a value of 1 (p<0.05). Cut-off values were set to a factor of 1.2 for growth (upper 5% of all data), and 1.45 for biofilm formation (upper 20% of all data). Aa: Aggregatibacter actinomycetemcomitans, Fn: Fusobacterium nucleatum, Ssob: Streptococcus sobrinus, Avisc: Actinomyces viscosus, Ssal: Streptococcus salivarius, Smitis: Streptococcus mitis, Ssang: Streptococcus sanguinis, Sgord: Streptococcus gordonii, Soralis: Streptococcus oralis.
(§4) Total biofilm growth in the presence of arginine was assessed through crystal violet staining. An increase of 1.2-fold or greater over the no substrate control was considered significant as calculated using a Student's t-test (p<0.05).

[3] = tested on: A. viscosus; experiment: Single species growth in media supplemented with arginine (optical density 630 nm); type: cell-based, Actinomyces viscosus; details: 10-25 micromol/ml arginine; vs reference control set to 1; OD 630 nm at 24 and 48 hours
Description: (§5) To assess the impact of the amino acid arginine on beneficial oral bacteria and on pathogenic oral bacteria, representative bacterial species were cultured in media supplemented with 5, 10, 20, and 25 micromol/ml of arginine using a 96-well polystyrene microtiter plate. The bacterial cultures were incubated under anaerobic conditions or an environment containing 5% carbon dioxide, monitoring growth at 24 and 48 hours through optical density at a wavelength of 630 nm.
as §3

[4] = tested on: pathogenic bacteria; experiment: as above; type: cell-based; details: 5, 10, 20, 25 micromol/ml arginine; OD 630 nm at 24 and 48 hours
Description: as §5, §3

[5] = tested on: S. sanguinis; experiment: as above; type: cell-based, Streptococcus sanguinis; details: 10-25 micromol/ml arginine; vs reference control set to 1; OD 630 nm at 24 and 48 hours
Description: as §5, §3

[6] = tested on: S. gordonii; experiment: as above; type: cell-based, Streptococcus gordonii; details: 10-25 micromol/ml arginine; vs reference control set to 1; OD 630 nm at 24 and 48 hours
Description: as §5, §3

[7] = tested on: Porphyromonas gingivalis; experiment: Dual species competitive biofilm assay (qPCR); type: cell-based; details: 25 μmol/ml arginine, negative value = reduction of pathogen
Description: as §1, §2

[8] = tested on: Aggregatibacter actinomycetemcomitans; experiment: Dual species competitive biofilm assay (qPCR); type: cell-based; details: 25 μmol/ml arginine, negative value = reduction of pathogen
Description: as §1, §2

[9] = tested on: Streptococcus sobrinus; experiment: Dual species competitive biofilm assay (qPCR); type: cell-based; details: 25 μmol/ml arginine, negative value = reduction of pathogen
Description: as §1, §2

[10] = tested on: Prevotella intermedia; experiment: Dual species competitive biofilm assay (qPCR); type: cell-based; details: 25 μmol/ml arginine, negative value = reduction of pathogen
Description: as §1, §2

[11] = tested on: beneficial bacteria; experiment: Dual species competitive biofilm assay (qPCR); type: cell-based; details: 25 micromol/ml arginine; co-cultured with one pathogenic microbe
Description: as §1, §2

[12] = tested on: Streptococcus mutans; experiment: Dual species competitive biofilm assay (qPCR); type: cell-based; details: 25 μmol/ml arginine, negative value = reduction of pathogen
Description: as §1, §2

[13] = tested on: A. actinomycetemcomitans biofilms; experiment: Total biofilm growth in the presence of arginine (crystal violet staining); type: cell-based, Aggregatibacter actinomycetemcomitans; details: vs no substrate control
Excerpt: as §3, §4

[14] = co-cultured with Actinomyces viscosus
[15] = co-cultured with Streptoccoccus salivarius
[16] = co-cultured with Streptococcus gordonii
[17] = co-cultured with Streptococcus mitis
[18] = co-cultured with Streptococcus oralis
[19] = co-cultured with Streptococcus sanguinis

N=C(N)NCCC[C@H](N)C(=O)O [arginine] was tested, and the “Proportional reduction of pathogenic species in a dual species biofilm post-Arginine treatment” value (shortened to “Proportional reduction”) [1, 14] was 13.35%, the “Proportional reduction” value [1, 15] was −28.32% and the “Proportional reduction” value [1, 16] was 474.12%. For the same molecule, the “Proportional reduction” value [1, 17] was 209.31%, the “Proportional reduction” value [1, 18] was 101.73% and the “Proportional reduction” value [1, 19] was 112.11%. For the same molecule, the biofilm formation [2] was “no significant increase”, the “fold increase of growth” value [3] was 1.2-1.3 fold and the “increase of pathogenic bacteria growth” value [4] was “no significant increase”. The “fold increase of growth” value [5] was 1.2-1.3 fold, the “fold increase of growth” value [6] was 1.2-1.3 fold and the “Proportional reduction” value [7, 14] was −97.78%. The “Proportional reduction” value [7, 15] was 90.75%, the “Proportional reduction” value [7, 16] was −52.94% and the “Proportional reduction” value [7, 17] was −96.62%. For the same molecule, the “Proportional reduction” value [7, 18] was −79.23%, the “Proportional reduction” value [7, 19] was −85.49% and the “Proportional reduction” value [8, 14] was −25.66%. The “Proportional reduction” value [8, 15] was −35.38%, the “Proportional reduction” value [8, 16] was 100.61% and the “Proportional reduction” value [8, 17] was 73.94%. For the same molecule, the “Proportional reduction” value [8, 18] was 268.65%, the “Proportional reduction” value [8, 19] was 233.40% and the “Proportional reduction” value [9, 14] was −7.87%. For the same molecule, the “Proportional reduction” value [9, 15] was −1.33%, the “Proportional reduction” value [9, 16] was −50.33% and the “Proportional reduction” value [9, 17] was 49.29%. For the same molecule, the “Proportional reduction” value [9, 18] was −15.77%, the “Proportional reduction” value [9, 19] was −40.73% and the “Proportional reduction” value [10, 14] was −99.99%. The “Proportional reduction” value [10, 15] was 81.56%, the “Proportional reduction” value [10, 16] was −98.29% and the “Proportional reduction” value [10, 17] was −52.64%. The “Proportional reduction” value [10, 18] was −73.78%, the “Proportional reduction” value [10, 19] was −99.35% and the “growth of beneficial bacteria in arginine-cultured dual species biofilms” value [11] was “increase”. The “Proportional reduction” value [12, 14] was −23.93%, the “Proportional reduction” value [12, 15] was −15.19% and the “Proportional reduction” value [12, 16] was −87.64%. The “Proportional reduction” value [12, 17] was −0.72%, the “Proportional reduction” value [12, 18] was −3.47% and the “Proportional reduction” value [12, 19] was −19.30%. The biofilm formation [13] was “increase”.
